{"source": "patent US20240156838A1", "about": "“Contraceptive Compositions and Methods for Improved Efficacy and Modulation of Side Effects” (Agile Therapeutics, Inc., priority 2015, published 2024)", "key": {"[1]": {"conditions": "cited from earlier work; for unenhanced flux: without chemical enhancers"}, "SHBG [2]": {"target": "T1, SHBG (Homo sapiens, UniProt P04278)", "T1 sequence (P04278 30-402)": "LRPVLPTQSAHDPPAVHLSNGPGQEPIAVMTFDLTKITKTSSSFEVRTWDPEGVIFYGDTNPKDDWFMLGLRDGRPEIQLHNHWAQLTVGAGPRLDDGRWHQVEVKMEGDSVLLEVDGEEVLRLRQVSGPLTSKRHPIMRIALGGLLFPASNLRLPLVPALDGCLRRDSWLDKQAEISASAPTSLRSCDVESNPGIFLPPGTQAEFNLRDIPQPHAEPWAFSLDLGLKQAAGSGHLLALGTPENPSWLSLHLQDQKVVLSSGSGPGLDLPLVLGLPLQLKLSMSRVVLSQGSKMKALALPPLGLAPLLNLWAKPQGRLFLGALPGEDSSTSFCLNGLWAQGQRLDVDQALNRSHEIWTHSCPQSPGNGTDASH", "conditions": "cited from earlier work; for binding affinity for SHBG: Phillips 1990, Steroids"}, "[3]": {"conditions": "in vivo; cited from earlier work"}, "SHBG [4]": {"target": "T1, SHBG", "conditions": "cited from earlier work"}, "[5]": {"assay": "Second clinical trial of LNG plus EE transdermal patches (Example 2): serum/plasma LNG and EE levels", "conditions": "clinical data of LNG plus EE patches versus LNG-only patches"}, "[6]": {"conditions": "human, in vivo"}, "[7]": {"assay": "In vitro skin permeation of LNG from patches, Franz diffusion cells", "format": "in vitro ADME, human", "conditions": "comparison in words", "protocol": "The objective of this study was to compare in vitro skin permeation of LNG through human cadaver skin from a patch containing both EE and LNG (Patch of column 4, Table 1) with a patch containing only LNG (patch in column 2, Table 1).\nOnly one (1) skin donor was used in these in vitro skin permeation experiments (split thickness dermatomed approximately at […] human cadaver skin). All in vitro skin permeation studies were conducted using the PermeGear Membrane Transport System. Each Membrane Transport System consisted of vertical, jacketed (37° C.±0.5° C.) Franz diffusion cells with magnetic stirrer, 2 chamber (donor and receiver) sets of 6 units, orifice diameter 15 mm, effective permeation surface area 1.767 cm^2. Each cell was prepared by cutting the skin samples into approximately 3 cm×3 cm squares and mounting them on the top of the receiver compartment of Franz cells. Patches to be tested were placed on the stratum corneum surface of the skin and the donor and receiver compartments of the diffusion cells were then clamped in place. The receiver compartment was then filled with approximately 12 mL of receiver medium/receptor solution (Phosphate Buffered Saline (PBS)+0.5% Oleth 20+0.008% Gentamicin, pH 7.3), tilting to make sure the receiver medium and the skin/solution interface was free of any air bubbles.\nSkin flux studies were run for a period of 168 hours. […]"}, "[8]": {"conditions": "Victor et al., J. Clin. Endocrinol. Metab. 43: 244"}}, "note": "Read-outs that look alike come from different tables or passages of the source."}
{"compound": "C#C[C@]1(O)CC[C@H]2[C@@H]3CCC4=CC(=NO)CC[C@@H]4[C@H]3CC[C@@]21CC", "note": "(mixture of isomers) [17 deacetylnorgestimate]", "values": [{"measurement": "unenhanced flux", "setting": "[1]; from cited patents", "result": 0.1, "unit": "micrograms/cm^2/hr"}]}
{"compound": "C#C[C@]1(OC(C)=O)CC[C@H]2[C@@H]3CCC4=CC(=NO)CC[C@@H]4[C@H]3CC[C@@]21CC", "note": "(mixture of isomers) [norgestimate]", "values": [{"measurement": "binding affinity for SHBG", "setting": "SHBG [2]", "result": "low binding affinity"}]}
{"compound": "C#CC1(O)CC[C@H]2[C@@H]3CCC4=CC(=O)CC[C@@H]4[C@H]3CC[C@@]21CC", "note": "(mixture of isomers) [dl-norgestrel]", "values": [{"measurement": "binding affinity to SHBG", "setting": "SHBG [2]; [8]", "result": "higher affinity for SHBG than EE"}]}
{"compound": "C#C[C@]1(O)CC[C@H]2[C@@H]3CCC4=CC(=O)CC[C@@H]4[C@H]3C(=C)C[C@@]21CC", "note": "[3-keto desogestrel]", "values": [{"measurement": "binding affinity for SHBG", "setting": "SHBG [2]", "result": "reasonably high affinities"}, {"measurement": "binding affinity to SHBG", "setting": "SHBG [2]; Pollow 1989, Contraception", "result": "high binding affinity"}]}
{"compound": "C[C@]12CC[C@@H]3c4ccc(O)cc4CC[C@H]3[C@@H]1CC[C@@H]2O", "note": "[17-beta estradiol, 17-beta-estradiol]", "values": [{"measurement": "oral bioavailability", "setting": "[3]", "result": "less than 10%"}]}
{"compound": "C#C[C@]1(O)CC[C@H]2[C@@H]3CCc4cc(O)ccc4[C@H]3CC[C@@]21C", "note": "[EE, ethinyl estradiol]", "values": [{"measurement": "IC50", "setting": "SHBG [4]; Hong et al., 2015, read-out: IC50 in testosterone displacement assay", "result": 790, "unit": "nM"}, {"measurement": "IC50", "setting": "SHBG [4]; according to Hong (2015), read-out: IC50 (affinity for SHBG)", "result": 800, "unit": "nM"}, {"measurement": "oral bioavailability", "setting": "[3]", "result": 95, "unit": "%"}, {"measurement": "increase of LNG plasma levels by addition of EE relative to addition of an equivalent amount of LNG", "setting": "[5]", "result": "about ten"}]}
{"compound": "C#C[C@]1(O)CC[C@H]2[C@@H]3CCC4=CC(=O)CC[C@@H]4[C@H]3CC[C@@]21CC", "note": "[LNG, levonorgestrel]", "values": [{"measurement": "mean serum concentration of LNG, value extrapolated from the data collected", "setting": "[6]", "result": 1420, "unit": "picograms per milliliter"}, {"measurement": "permeation/release of LNG through human skin, LNG-only versus LNG plus EE patches", "setting": "[7]", "result": "not affected by the presence of EE"}]}
{"compound": "CC(=O)O[C@]1(C(C)=O)CC[C@H]2[C@@H]3C=C(C)C4=CC(=O)CC[C@]4(C)[C@H]3CC[C@@]21C", "note": "[Megestrol acetate]", "values": [{"measurement": "binding affinity to SHBG", "setting": "SHBG [2]; [8]", "result": "do not have high binding affinity"}]}
{"compound": "C#C[C@]1(OC(C)=O)CC[C@H]2[C@@H]3CCC4=CC(=O)CC[C@@H]4[C@H]3CC[C@@]21C", "note": "[Norethindrone Acetate]", "values": [{"measurement": "flux", "setting": "[1]; U.S. Pat. No. 5,474,783, enhancement not stated", "result": 0.05, "unit": "micrograms/cm^2/hr"}]}
{"compound": "CC(=O)O[C@]1(C(C)=O)CC[C@H]2[C@@H]3C=C(Cl)C4=CC(=O)[C@@H]5C[C@@H]5[C@]4(C)[C@H]3CC[C@@]21C", "note": "[cyproterone acetate]", "values": [{"measurement": "binding affinity to SHBG", "setting": "SHBG [2]; Pollow 1989, Contraception", "result": "lesser binding affinity"}]}
{"compound": "C#C[C@]1(O)CC[C@H]2[C@@H]3CCC4=CC(=O)CC[C@@H]4[C@H]3CC[C@@]21CC", "note": "[d-norgestrel]", "values": [{"measurement": "binding affinity to SHBG", "setting": "SHBG [2]; [8]", "result": "higher affinity for SHBG than EE"}]}
{"compound": "C#C[C@]1(O)CC[C@H]2[C@@H]3CCC4=CCCC[C@@H]4[C@H]3C(=C)C[C@@]21CC", "note": "[desogestrel]", "values": [{"measurement": "binding affinity to SHBG", "setting": "SHBG [2]; Pollow 1989, Contraception", "result": "lesser binding affinity"}, {"measurement": "binding affinity to SHBG", "setting": "SHBG [2]; Schoultz 1989", "result": "lesser binding affinity"}]}
{"compound": "C#C[C@]1(O)C=C[C@H]2[C@@H]3CCC4=CC(=O)CC[C@@H]4[C@H]3CC[C@@]21CC", "note": "[gestodene]", "values": [{"measurement": "binding affinity for SHBG", "setting": "SHBG [2]", "result": "reasonably high affinities"}, {"measurement": "binding affinity to SHBG", "setting": "SHBG [2]; Pollow 1989, Contraception", "result": "high binding affinity"}]}
{"compound": "C#C[C@]1(O)CC[C@H]2[C@@H]3CCC4=CCCC[C@@H]4[C@H]3CC[C@@]21C", "note": "[lynestrenol]", "values": [{"measurement": "binding affinity to SHBG", "setting": "SHBG [2]; [8]", "result": "higher affinity for SHBG than EE"}]}
{"compound": "CC(=O)O[C@]1(C(C)=O)CC[C@H]2[C@@H]3C[C@H](C)C4=CC(=O)CC[C@]4(C)[C@H]3CC[C@@]21C", "note": "[medroxyprogesterone acetate]", "values": [{"measurement": "binding affinity to SHBG", "setting": "SHBG [2]; Pollow 1989, Contraception", "result": "lesser binding affinity"}, {"measurement": "binding affinity to SHBG", "setting": "SHBG [2]; Schoultz 1989", "result": "lesser binding affinity"}]}
{"compound": "C=C1C[C@H]2[C@@H]3CCC4=CC(=O)CC[C@@H]4[C@H]3CC[C@]2(C)[C@@]1(OC(C)=O)C(C)=O", "note": "[nesterone]", "values": [{"measurement": "enhanced flux", "setting": "[1]; with chemical enhancers, from cited patents", "result": 0.01, "unit": "micrograms/cm^2/hr"}, {"measurement": "unenhanced flux", "setting": "[1]; from cited patents", "result": 0.005, "unit": "micrograms/cm^2/hr"}]}
{"compound": "C#C[C@]1(OC(C)=O)CC[C@H]2[C@@H]3CCC4=CC(=O)CC[C@@H]4[C@H]3CC[C@@]21C", "note": "[norethisterone acetate]", "values": [{"measurement": "unenhanced flux", "setting": "[1]; from cited patents", "result": 0.05, "unit": "micrograms/cm^2/hr"}]}
{"compound": "C#C[C@]1(O)CC[C@H]2[C@@H]3CCC4=CC(=O)CC[C@@H]4[C@H]3CC[C@@]21C", "note": "[norethisterone]", "values": [{"measurement": "binding affinity to SHBG", "setting": "SHBG [2]; Schoultz 1989", "result": "high binding affinity"}, {"measurement": "binding affinity to SHBG", "setting": "SHBG [2]; [8]", "result": "higher affinity for SHBG than EE"}]}
{"compound": "C#C[C@]1(O)CC[C@H]2[C@@H]3CCC4=C(CCC(=O)C4)[C@H]3CC[C@@]21C", "note": "[norethynodrel]", "values": [{"measurement": "binding affinity to SHBG", "setting": "SHBG [2]; [8]", "result": "higher affinity for SHBG than EE"}]}
{"compound": "CC(=O)[C@H]1CC[C@H]2[C@@H]3CCC4=CC(=O)CC[C@]4(C)[C@H]3CC[C@]12C", "note": "[progesterone]", "values": [{"measurement": "unenhanced flux", "setting": "[1]; from cited patents", "result": 0.14, "unit": "micrograms/cm^2/hr"}, {"measurement": "binding affinity to SHBG", "setting": "SHBG [2]; Pollow 1989, Contraception", "result": "lesser binding affinity"}]}
{"compound": "medroxyprogesterone", "values": [{"measurement": "binding affinity to SHBG", "setting": "SHBG [2]; [8]", "result": "do not have high binding affinity"}]}
